Reference: ChEMBL document CHEMBL3102700, “Truncated norzoanthamine exhibiting similar collagen protection activity, toward a promising anti-osteoporotic drug” (Bioorg Med Chem Lett, 2014)
Calls of active or inactive are those of the source. The rule behind the calls is not given here.

What was measured:
[1] = Collagen protection activity of the compound assessed as residual collagen level after 180 mins by Sirius red colorimetric assay
[2] = Collagen protection activity of the compound assessed as residual collagen level at 10 uM after 180 mins by Sirius red colorimetric assay
[3] = Collagen protection activity of the compound assessed as residual collagen level at 0.1 uM after 180 mins by Sirius red colorimetric assay
[4] = Collagen protection activity of the compound assessed as residual collagen level at 1 uM after 180 mins by Sirius red colorimetric assay

SMILES	Activity [1]	Activity [2] [%]	Activity [3] [%]	Activity [4] [%]
CC1=CC(=O)CCC1	inactive			
C[C@H]1C[C@@H]2CN3[C@](CC[C@@]4(C)[C@]5(C)CCC[C@]34OC(=O)C5)(C1)O2	Dose-dependent effect	47.8	40	46.6
CC1=CC(=O)[C@H]2CC(=O)[C@H]3[C@@](C)(C[C@@]45OC(=O)C[C@]3(C)[C@]4(C)CC[C@]34C[C@@H](C)C[C@H](CN35)O4)[C@@H]2C1		45		40.4
COC(=O)C[C@@]1(C)[C@H]2C(=O)C[C@@H]3C(=O)C=C(C)C[C@H]3[C@]2(C)C=C2N3C[C@H]4C[C@H](C)C[C@]3(CC[C@]21C)O4	inactive			
